Measurements published in PubChem BioAssay (NCI).
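Following 48 hours of exposure in 96-well plates, responses at five concentrations were used to interpolate endpoints linearly. GI50 is the concentration that inhibits growth by half. The concentration for full growth arrest is given as TGI.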

Tests used:
Test in all cases: growth of human tumour cells (NCI), 48 h
NCI-H23 lung = test system: NCI-H23 lung
HCC-2998 colon = test system: HCC-2998 colon
HCT-116 colon = test system: HCT-116 colon
UACC-257 melanoma = test system: UACC-257 melanoma
OVCAR-8 ovarian = test system: OVCAR-8 ovarian
SF-539 CNS = test system: SF-539 CNS
CAKI-1 renal = test system: CAKI-1 renal
MDA-MB-231 breast = test system: MDA-MB-231 breast
SW-620 colon = test system: SW-620 colon
U251 CNS = test system: U251 CNS
T-47D breast = test system: T-47D breast
PC-3 prostate = test system: PC-3 prostate
TK-10 renal = test system: TK-10 renal
COLO 205 colon = test system: COLO 205 colon
OVCAR-4 ovarian = test system: OVCAR-4 ovarian
IGROV1 ovarian = test system: IGROV1 ovarian
DU-145 prostate = test system: DU-145 prostate
HOP-92 NSCLC = test system: HOP-92 NSCLC
SK-OV-3 ovarian = test system: SK-OV-3 ovarian
SNB-19 CNS = test system: SNB-19 CNS
UACC-62 melanoma = test system: UACC-62 melanoma
EKVX NSCLC = test system: EKVX NSCLC
A549 NSCLC = test system: A549 NSCLC
SNB-75 CNS = test system: SNB-75 CNS
OVCAR-3 ovarian = test system: OVCAR-3 ovarian
SN12C renal = test system: SN12C renal
KM12 colon = test system: KM12 colon
LOX IMVI melanoma = test system: LOX IMVI melanoma
SK-MEL-28 melanoma = test system: SK-MEL-28 melanoma
UO-31 renal = test system: UO-31 renal
MDA-MB-435 = test system: MDA-MB-435
NCI-H460 lung = test system: NCI-H460 lung
K-562 leukemia = test system: K-562 leukemia
SK-MEL-5 melanoma = test system: SK-MEL-5 melanoma
SF-268 CNS = test system: SF-268 CNS
NCI-H226 lung = test system: NCI-H226 lung
HS 578T breast = test system: HS 578T breast
HT29 colon = test system: HT29 colon
CCRF-CEM leukemia = test system: CCRF-CEM leukemia
HL-60(TB) leukemia = test system: HL-60(TB) leukemia
MALME-3M melanoma = test system: MALME-3M melanoma
HOP-62 NSCLC = test system: HOP-62 NSCLC
NCI/ADR-RES ovarian = test system: NCI/ADR-RES ovarian
HCT-15 colon = test system: HCT-15 colon
SK-MEL-2 melanoma = test system: SK-MEL-2 melanoma
786-0 renal = test system: 786-0 renal
MOLT-4 leukemia = test system: MOLT-4 leukemia
SF-295 CNS = test system: SF-295 CNS
SR leukemia = test system: SR leukemia
MCF7 breast = test system: MCF7 breast
A498 renal = test system: A498 renal
RPMI-8226 leukemia = test system: RPMI-8226 leukemia
NCI-H522 lung = test system: NCI-H522 lung
ACHN renal = test system: ACHN renal
OVCAR-5 ovarian = test system: OVCAR-5 ovarian
BT-549 breast = test system: BT-549 breast
M14 melanoma = test system: M14 melanoma
RXF 393 renal = test system: RXF 393 renal

Which results are given for `Cc1nnc(-c2ccc(C)c(-c3ccc(C(=O)NCc4ccc(Cl)cc4)cc3)c2)o1`?
GI50 (NCI-H23 lung): 11.3 µM; TGI (NCI-H23 lung): > 25 µM; GI50 (HCC-2998 colon): 17.5 µM; TGI (HCC-2998 colon): > 25 µM; GI50 (HCT-116 colon): 12.6 µM; TGI (HCT-116 colon): > 25 µM; GI50 (UACC-257 melanoma): 8.07 µM; TGI (UACC-257 melanoma): > 25 µM; GI50 (OVCAR-8 ovarian): > 25 µM; TGI (OVCAR-8 ovarian): > 25 µM; GI50 (SF-539 CNS): > 22.7 µM; TGI (SF-539 CNS): > 25 µM; GI50 (CAKI-1 renal): 11.8 µM; TGI (CAKI-1 renal): > 25 µM; GI50 (MDA-MB-231 breast): 10.4 µM; TGI (MDA-MB-231 breast): > 25 µM; GI50 (SW-620 colon): > 25 µM; TGI (SW-620 colon): > 25 µM; GI50 (U251 CNS): > 25 µM; TGI (U251 CNS): > 25 µM; GI50 (T-47D breast): 4.13 µM; TGI (T-47D breast): > 19.2 µM; GI50 (PC-3 prostate): 8.82 µM; TGI (PC-3 prostate): > 25 µM; GI50 (TK-10 renal): > 15.7 µM; TGI (TK-10 renal): > 25 µM; GI50 (COLO 205 colon): 9.08 µM; TGI (COLO 205 colon): > 23.7 µM; GI50 (OVCAR-4 ovarian): 3.41 µM; TGI (OVCAR-4 ovarian): 16.4 µM; GI50 (IGROV1 ovarian): > 16.3 µM; TGI (IGROV1 ovarian): > 25 µM; GI50 (DU-145 prostate): 16.2 µM; TGI (DU-145 prostate): > 25 µM; GI50 (HOP-92 NSCLC): 3.26 µM; TGI (HOP-92 NSCLC): > 25 µM; GI50 (SK-OV-3 ovarian): 9.53 µM; TGI (SK-OV-3 ovarian): > 25 µM; GI50 (SNB-19 CNS): > 22.6 µM; TGI (SNB-19 CNS): > 25 µM; GI50 (UACC-62 melanoma): 8.21 µM; TGI (UACC-62 melanoma): > 25 µM; GI50 (EKVX NSCLC): 7.02 µM; TGI (EKVX NSCLC): > 25 µM; GI50 (A549 NSCLC): 11.5 µM; TGI (A549 NSCLC): > 25 µM; GI50 (SNB-75 CNS): 7.88 µM; TGI (SNB-75 CNS): > 25 µM; GI50 (OVCAR-3 ovarian): 11.6 µM; TGI (OVCAR-3 ovarian): > 25 µM; GI50 (SN12C renal): > 18 µM; TGI (SN12C renal): > 25 µM; GI50 (KM12 colon): 11 µM; TGI (KM12 colon): > 25 µM; GI50 (LOX IMVI melanoma): > 25 µM; TGI (LOX IMVI melanoma): > 25 µM; GI50 (SK-MEL-28 melanoma): 14.3 µM; TGI (SK-MEL-28 melanoma): > 25 µM; GI50 (UO-31 renal): 4.37 µM; TGI (UO-31 renal): > 25 µM; GI50 (MDA-MB-435): 7.15 µM; TGI (MDA-MB-435): > 25 µM; GI50 (NCI-H460 lung): 11.9 µM; TGI (NCI-H460 lung): > 25 µM; GI50 (K-562 leukemia): 7.64 µM; TGI (K-562 leukemia): > 25 µM; GI50 (SK-MEL-5 melanoma): 3.97 µM; TGI (SK-MEL-5 melanoma): 9.53 µM; GI50 (SF-268 CNS): 12.9 µM; TGI (SF-268 CNS): > 25 µM; GI50 (NCI-H226 lung): 6.93 µM; TGI (NCI-H226 lung): > 25 µM; GI50 (HS 578T breast): 10.7 µM; TGI (HS 578T breast): > 25 µM; GI50 (HT29 colon): 19.8 µM; TGI (HT29 colon): > 25 µM; GI50 (CCRF-CEM leukemia): 14.7 µM; TGI (CCRF-CEM leukemia): > 25 µM; GI50 (HL-60(TB) leukemia): 8.55 µM; TGI (HL-60(TB) leukemia): 24.5 µM; GI50 (MALME-3M melanoma): 6.15 µM; TGI (MALME-3M melanoma): 24.9 µM; GI50 (HOP-62 NSCLC): 14.7 µM; TGI (HOP-62 NSCLC): > 25 µM; GI50 (NCI/ADR-RES ovarian): 9.04 µM; TGI (NCI/ADR-RES ovarian): > 25 µM; GI50 (HCT-15 colon): 11.7 µM; TGI (HCT-15 colon): > 25 µM; GI50 (SK-MEL-2 melanoma): 12.7 µM; TGI (SK-MEL-2 melanoma): > 25 µM; GI50 (786-0 renal): 18.7 µM; TGI (786-0 renal): > 25 µM; GI50 (MOLT-4 leukemia): 9.73 µM; TGI (MOLT-4 leukemia): > 25 µM; GI50 (SF-295 CNS): 7.16 µM; TGI (SF-295 CNS): > 25 µM; GI50 (SR leukemia): 11.9 µM; TGI (SR leukemia): > 25 µM; GI50 (MCF7 breast): 7.37 µM; TGI (MCF7 breast): > 19 µM; GI50 (A498 renal): 7.03 µM; TGI (A498 renal): > 25 µM; GI50 (RPMI-8226 leukemia): 10.2 µM; TGI (RPMI-8226 leukemia): > 25 µM; GI50 (NCI-H522 lung): 8.49 µM; TGI (NCI-H522 lung): > 25 µM; GI50 (ACHN renal): 12.4 µM; TGI (ACHN renal): > 25 µM; GI50 (OVCAR-5 ovarian): > 25 µM; TGI (OVCAR-5 ovarian): > 25 µM; GI50 (BT-549 breast): 14.7 µM; TGI (BT-549 breast): > 25 µM; GI50 (M14 melanoma): 15.7 µM; TGI (M14 melanoma): > 25 µM; GI50 (RXF 393 renal): 6.28 µM; TGI (RXF 393 renal): > 25 µM
